Reference: patent US7811778B2, “Methods of screening for gastrointestinal cancer” (Vanderbilt University, priority 2006, dated 2010)
Entries after “also recorded” stand apart in the source; their conditions may differ.

Test system: emerging SPEM cells at the bases of fundic glands
Experiment: Gene microarray analysis of laser-capture microdissected chief cells and emerging SPEM cells (Affymetrix Mouse 430 2.0)
Type: in vivo, gastrin-deficient mice
Method: See Nomura, S., Yamaguchi, H., Wang, T. C., Lee, J. R., and Goldenring, J. R. 2004. Alterations in gastric mucosal lineages induced by acute oxyntic atrophy in wild type and gastrin deficient mice. Amer. J. Physiol. 288:G362-G375. […] To examine this hypothesis more directly, chief cells were microdissected from the very bases of untreated gastrin knockout mice as well as SPEM cells at the base of fundic glands after 1 and 3 days of treatment with DMP-777. Total RNA was prepared from 10,000 cells isolated from 4 different mice in each group. For each of the 12 samples, linear amplification was performed and Affymetrix Mouse 2.0 gene microarrays were probed. […] Second, 30 genes were identified as being involved in G1-S interface transition, including 5 MCM proteins, BRCA1, RIS2, RAD51, TACC3 and ligase1. Immunocytochemistry was used to confirm the upregulation of MCM3 as well as TACC3 in SPEM cells located at the base of fundic glands in mice treated for 1 or 3 days with DMP-777. All of these changes are consistent with alterations moving towards a proliferative phenotype. […] See Nomura, S., Yamaguchi, H., Wang, T. C., Lee, J. R., and Goldenring, J. R. 2004. Alterations in gastric mucosal lineages induced by acute oxyntic atrophy in wild type and gastrin deficient mice. Amer. J. Physiol. 288:G362-G375. Thus the up-regulation of proteins involved in the G1/S interface is also consistent with transdifferentiation of chief cells into SPEM, since such changes would require a global transcriptome, alterations that would require unwinding of DNA and changes in gene activation including alteration in DNA methylation.
Gastrin-deficient mice were constructed by targeted disruption of the gastrin gene and were maintained on a C57BL/6 background (Nomura S, Yamaguchi H, Wang T C, Lee J R, Goldenring J R. Alterations in gastric mucosal lineages induced by acute oxyntic atrophy in wild type and gastrin deficient mice. Amer.J.Physiol. 2004; In Press). Mice were treated for 1 or 3 days with oral gavage administration of DMP-777 (a gift of DuPont Pharmaceuticals), formulated in 0.5% methylcellulose (administered orally as a gavage once daily at 350 mg/kg/day). Untreated mice were utilized as controls. Mice were sacrificed and their stomachs were excised and opened along the greater curvature and processed for frozen sections for laser capture microdissection. From the untreated Gastrin-deficient mice, chief cells were microdissected from the bases of gastric glands. The emerging SPEM cells were microdissected from the bases of fundic glands of DMP-777-treated Gastrin-deficient mice after 1 or 3 days of oral drug administration. Cell collections (10,000 cells) and extractions of total RNA were performed as previously described (Nomura S, Baxter S, Yamaguchi T, Leys C, Vartapetian A B, Fox J G, Lee J R, Wang T C, Goldenring J R. Relationship of spasmolytic polypeptide expressing metaplasia (SPEM) to pre-neoplasia in H. felis-infected mice. Gastroenterology 2004; 127:582-594).
Total RNA from microdissected cells were reverse transcribed and amplified through two rounds of linear amplification using a Nugen Ovation kit to amplify and label 10-20 ng of RNA. The resulting single-strand cDNA product was purified by binding to and elution from a Qiagen QIAQUICK® column. The cDNA product was then quantitated and 2.2 μg of the fragmented, labeled product was hybridized to Affymetrix Mouse 430 2.0 microarrays overnight, with staining and scanning performed the next day. Gene expression was analyzed among microdissected cells from 4 untreated gastrin-deficient mice 4 mice treated with DMP-777 for one day and 4 mice treated with DMP-777 for three days. The raw gene expression data (.cel files) were converted to expression values using the Affy function in R (see the Bioconductor website). […]

[1] = DMP-777-treated gastrin-deficient mice, microarray
[2] = gastrin knockout mice, 1 day of DMP-777, SPEM cells vs untreated chief cells, fold increases indicated as the exponential of 2
[3] = gastrin knockout mice, 3 days of DMP-777, SPEM cells vs untreated chief cells, fold increases indicated as the exponential of 2
[4] = gastrin-deficient mice, 350 mg/kg/day oral, 1 day, microdissected SPEM cells vs untreated chief cells
[5] = gastrin-deficient mice, 350 mg/kg/day oral, 1 day, microdissected SPEM cells vs untreated chief cells, first line for this gene
[6] = gastrin-deficient mice, 350 mg/kg/day oral, 1 day, microdissected SPEM cells vs untreated chief cells, second line for this gene
[7] = gastrin-deficient mice, 350 mg/kg/day oral, 3 days, microdissected SPEM cells vs untreated chief cells
[8] = gastrin-deficient mice, 350 mg/kg/day oral, 3 days, microdissected SPEM cells vs untreated chief cells, first line for this gene
[9] = gastrin-deficient mice, 350 mg/kg/day oral, 3 days, microdissected SPEM cells vs untreated chief cells, second line for this gene

## CCC[C@@H](NC(=O)N1C(=O)C(CC)(CC)[C@@H]1Oc1ccc(C(=O)N2CCN(C)CC2)cc1)c1ccc2c(c1)OCO2 [DMP-777]
1 and 3 days of DMP-777-treatment
  pro-apoptotic genes in the cohort of up-regulated gene transcripts: there were not any pro-apoptotic genes detected; also recorded: No pro-apoptotic genes were detected
DMP-777 1 and 3 days, at least 2 fold change
  number of up-regulated genes involved in G1-S interface transition: 30
[1]
  number of the top 50 probes for up-regulated transcripts that detect regulators of the G1/S transition: 34
  transcripts for lipase, a chief cell product: significant decrease
[2]
  BRRN1, Day 1 Fold increase, Relative to Control: 2.2 Fold
  CRIP1, Day 1 Fold increase, Relative to Control: 3.2 Fold
  EREG, Day 1 Fold increase, Relative to Control: 1.8 Fold
  EXOSC8, Day 1 Fold increase, Relative to Control: 2.6 Fold
  EXPI, Day 1 Fold increase, Relative to Control: 2.4 Fold
  FIGNL1, Day 1 Fold increase, Relative to Control: 3.3 Fold
  IL1RN, Day 1 Fold increase, Relative to Control: 4.7 Fold
  LGALS3, Day 1 Fold increase, Relative to Control: 5.5 Fold
  NELF, Day 1 Fold increase, Relative to Control: 2.1 Fold
  S100A4, Day 1 Fold increase, Relative to Control: 2.8 Fold
  TMEM40, Day 1 Fold increase, Relative to Control: 1.4 Fold
  TMEM109, Day 1 Fold increase, Relative to Control: 2.5 Fold
  TR1P13, Day 1 Fold increase, Relative to Control: 3.5 Fold
[3]
  BRRN1, Day 3 Fold Increase, Relative to Control: 3.1 Fold
  CRIP1, Day 3 Fold Increase, Relative to Control: 5.4 Fold
  EREG, Day 3 Fold Increase, Relative to Control: 4.8 Fold
  EXOSC8, Day 3 Fold Increase, Relative to Control: 2.8 Fold
  EXPI, Day 3 Fold Increase, Relative to Control: 8.4 Fold
  FIGNL1, Day 3 Fold Increase, Relative to Control: 2.7 Fold
  IL1RN, Day 3 Fold Increase, Relative to Control: 4.2 Fold
  LGALS3, Day 3 Fold Increase, Relative to Control: 7.3 Fold
  NELF, Day 3 Fold Increase, Relative to Control: 3.7 Fold
  S100A4, Day 3 Fold Increase, Relative to Control: 2.5 Fold
  TMEM40, Day 3 Fold Increase, Relative to Control: 6.9 Fold
  TMEM109, Day 3 Fold Increase, Relative to Control: 3.6 Fold
  TR1P13, Day 3 Fold Increase, Relative to Control: 3.0 Fold
[4]
  5ssca1 transcript, 1 DAY DMP-777 vs CONTROL: 8.9
  Atf3 transcript, 1 DAY DMP-777 vs CONTROL: 311.4
  Cdc2a transcript, 1 DAY DMP-777 vs CONTROL: 11.7
  Cdca1 transcript, 1 DAY DMP-777 vs CONTROL: 9.2
  Cdca5 transcript, 1 DAY DMP-777 vs CONTROL: 17.3
  CdcaS transcript, 1 DAY DMP-777 vs CONTROL: 7.3
  Cenph transcript, 1 DAY DMP-777 vs CONTROL: 25.7
  Clspn transcript, 1 DAY DMP-777 vs CONTROL: 9.5
  Crip1 transcript, 1 DAY DMP-777 vs CONTROL: 9.5
  Dcc1 transcript, 1 DAY DMP-777 vs CONTROL: 8.8
  Ereg transcript, 1 DAY DMP-777 vs CONTROL: 3.6
  ExoscB transcript, 1 DAY DMP-777 vs CONTROL: 6.2
  Fignl1 transcript, 1 DAY DMP-777 vs CONTROL: 10.2
  Gadd45b transcript, 1 DAY DMP-777 vs CONTROL: 8.6
  Il1m transcript, 1 DAY DMP-777 vs CONTROL: 25.4
  Lgals3 transcript, 1 DAY DMP-777 vs CONTROL: 46.8
  Lig1 transcript, 1 DAY DMP-777 vs CONTROL: 9.3
  Mcm6 transcript, 1 DAY DMP-777 vs CONTROL: 25.1
  Ncapg transcript, 1 DAY DMP-777 vs CONTROL: 7.5
  Pole transcript, 1 DAY DMP-777 vs CONTROL: 7.5
  Rad51 transcript, 1 DAY DMP-777 vs CONTROL: 13.5
  Rad54b transcript, 1 DAY DMP-777 vs CONTROL: 6.7
  Rfc3 transcript, 1 DAY DMP-777 vs CONTROL: 8.1
  Rfc4 transcript, 1 DAY DMP-777 vs CONTROL: 8.5
  Rrm1 transcript, 1 DAY DMP-777 vs CONTROL: 8.4
  Tk1 transcript, 1 DAY DMP-777 vs CONTROL: 10.1
  Top2a transcript, 1 DAY DMP-777 vs CONTROL: 7.3
  Trip13 transcript, 1 DAY DMP-777 vs CONTROL: 10.3
  Uhrf1 transcript, 1 DAY DMP-777 vs CONTROL: 35.3
  WDNM1 transcript, 1 DAY DMP-777 vs CONTROL: 5.2
  Wfdc2 transcript, 1 DAY DMP-777 vs CONTROL: 8.9
[5]
  Mcm5 * transcript, 1 DAY DMP-777 vs CONTROL: 18.1
  Mcm10 * transcript, 1 DAY DMP-777 vs CONTROL: 12.2
  Prc1 transcript, 1 DAY DMP-777 vs CONTROL: 7.5
  Rad51ap1 * transcript, 1 DAY DMP-777 vs CONTROL: 12.9
  Ris2* transcript, 1 DAY DMP-777 vs CONTROL: 21.5
[6]
  Mcm5 * transcript, 1 DAY DMP-777 vs CONTROL: 13.9
  Mcm10 * transcript, 1 DAY DMP-777 vs CONTROL: 6.7
  Prc1 transcript, 1 DAY DMP-777 vs CONTROL: 7.0
  Rad51ap1 * transcript, 1 DAY DMP-777 vs CONTROL: 8.7
  Ris2* transcript, 1 DAY DMP-777 vs CONTROL: 7.3
[7]
  5ssca1 transcript, 3 DAYS DMP-777 vs CONTROL: 12.3
  Atf3 transcript, 3 DAYS DMP-777 vs CONTROL: 10.1
  Cdc2a transcript, 3 DAYS DMP-777 vs CONTROL: 7.0
  Cdca1 transcript, 3 DAYS DMP-777 vs CONTROL: 8.1
  Cdca5 transcript, 3 DAYS DMP-777 vs CONTROL: 36.1
  CdcaS transcript, 3 DAYS DMP-777 vs CONTROL: 8.7
  Cenph transcript, 3 DAYS DMP-777 vs CONTROL: 10.7
  Clspn transcript, 3 DAYS DMP-777 vs CONTROL: 8.5
  Crip1 transcript, 3 DAYS DMP-777 vs CONTROL: 42.6
  Dcc1 transcript, 3 DAYS DMP-777 vs CONTROL: 10.0
  Ereg transcript, 3 DAYS DMP-777 vs CONTROL: 28.9
  ExoscB transcript, 3 DAYS DMP-777 vs CONTROL: 6.7
  Fignl1 transcript, 3 DAYS DMP-777 vs CONTROL: 6.6
  Gadd45b transcript, 3 DAYS DMP-777 vs CONTROL: 5.0
  Il1m transcript, 3 DAYS DMP-777 vs CONTROL: 18.5
  Lgals3 transcript, 3 DAYS DMP-777 vs CONTROL: 153.3
  Lig1 transcript, 3 DAYS DMP-777 vs CONTROL: 9.6
  Mcm6 transcript, 3 DAYS DMP-777 vs CONTROL: 36.4
  Ncapg transcript, 3 DAYS DMP-777 vs CONTROL: 3.2
  Pole transcript, 3 DAYS DMP-777 vs CONTROL: 11.3
  Rad51 transcript, 3 DAYS DMP-777 vs CONTROL: 10.5
  Rad54b transcript, 3 DAYS DMP-777 vs CONTROL: 6.6
  Rfc3 transcript, 3 DAYS DMP-777 vs CONTROL: 6.1
  Rfc4 transcript, 3 DAYS DMP-777 vs CONTROL: 8.4
  Rrm1 transcript, 3 DAYS DMP-777 vs CONTROL: 8.4
  Tk1 transcript, 3 DAYS DMP-777 vs CONTROL: 11.5
  Top2a transcript, 3 DAYS DMP-777 vs CONTROL: 6.4
  Trip13 transcript, 3 DAYS DMP-777 vs CONTROL: 8.6
  Uhrf1 transcript, 3 DAYS DMP-777 vs CONTROL: 8.8
  WDNM1 transcript, 3 DAYS DMP-777 vs CONTROL: 345.9
  Wfdc2 transcript, 3 DAYS DMP-777 vs CONTROL: 67.5
[8]
  Mcm5 * transcript, 3 DAYS DMP-777 vs CONTROL: 36.2
  Mcm10 * transcript, 3 DAYS DMP-777 vs CONTROL: 38.3
  Prc1 transcript, 3 DAYS DMP-777 vs CONTROL: 6.9
  Rad51ap1 * transcript, 3 DAYS DMP-777 vs CONTROL: 6.1
  Ris2* transcript, 3 DAYS DMP-777 vs CONTROL: 41.3
[9]
  Mcm5 * transcript, 3 DAYS DMP-777 vs CONTROL: 18.2
  Mcm10 * transcript, 3 DAYS DMP-777 vs CONTROL: 10.1
  Prc1 transcript, 3 DAYS DMP-777 vs CONTROL: 7.4
  Rad51ap1 * transcript, 3 DAYS DMP-777 vs CONTROL: 7.4
  Ris2* transcript, 3 DAYS DMP-777 vs CONTROL: 10.3
Gene microarray, DMP-777-treated gastrin knockout mice vs untreated
  increase in the expression of the HE4 gene: greater than 16 fold
